Experimental data from article PMC10574532, “Revisiting Supersaturation of a Biopharmaceutical Classification System IIB Drug: Evaluation via a Multi-Cup Dissolution Approach and Molecular Dynamic Simulation” (Molecules, 2023).
≈ marks a conversion by molar mass, not a printed value.

How the values were obtained:
[1] = pH-dependent equilibrium solubility of ketoconazole in biorelevant fluids (FaSSIF) with or without precipitation inhibitor; type: physicochemical; conditions: modified Henderson-Hasselbalch fit, 37 °C
Method: Specifically, FaSSIF was prepared with different proportions of 0.2 mol/L disodium hydrogen phosphate (Na2HPO4) solution and 0.1 mol/L citric acid (C6H8O7) solution, with commercial standard FaSSIF powder. […] The final pH of each solution was measured before centrifugation at 10,000× g for 10 min at 37 °C. […] A sample volume of 10 μL was injected and subsequently separated on a Kromasil C18 column (5 μm, 4.6 × 250 mm) maintained at a temperature of 30 °C. The mobile phase consisted of a modified phosphoric acid solution containing 10 mM KH2PO4 in water (pH adjusted to 3.0), along with acetonitrile in a ratio of 50:50 (v/v). The flow rate employed was set at 1 mL/min while detection occurred at a wavelength of 254 nm.

[2] = Supersaturation-precipitation and absorption in the dynamic gastrointestinal model (DGIM); type: physicochemical
Method: The DGIM is achieved through a system consisting of 3 dissolution cups, which represent stomach, duodenum, and jejunum, respectively, filled with corresponding biorelevant fluid. N-octanol serves as the absorptive phase. The pumps facilitate fluid transfer, as depicted by arrows in Figure 9. In situ drug concentration is determined using fiber optical probes, and dynamic pH value of the aqueous fluid is monitored by pH electrodes. The parameters of DGIM can be adjusted to meet some special physiological conditions.
In this study, most of the parameters were based on the GIS proposed by Hens et al.. The pH values in the three cups were adjusted to 2.0, 5.9, and 6.1, respectively, to simulate the physiological digestive fluid in the stomach, duodenum, and jejunum of the fasted rats. […] The secretions used were biorelevant fluids that had been concentrated four times and pumped at a rate of 1 mL/min. Considering an average gastric half-emptying time ( th ) of approximately eight minutes, pump A transported gastric fluid into the duodenal cup at this first-order rate. Ensuring that the volume of biorelevant fluid in the duodenal cup was maintained at a constant level of 50 mL, any excess fluid was transported to the jejunal cup through pump B. Therefore, we can represent the rates va for pump A and vb for pump B at time t using following equations:(5) va=ln2×Vg,0×exp−ln2×t/th+1 (6) vb=va+1
The pump rate was regulated by a mono-chip computer, which was programmed to dynamically adjust the rate every second in accordance with first-order kinetics. […] The pumps worked until 40 min because, at that time, the solution in the gastric cup was less than 10 mL. However, the experiment continued for 3 h. The paddles were stirred at a rate of 50 rpm. All the cups were in a water bath at 37 °C.
Fiber optic probes with a 1 mm tip were connected to the instrument and employed for the detection of the 270–275 nm wavelength band. This detection specifically targeted the area under the curve (AUC) of the second derivatized absorbance curves. Calibration was performed using the accumulated addition method. The standard curves encompassed a wide concentration range in the dissolution process while ensuring linearity with an r^2 > 0.999.

[3] = In vivo pharmacokinetics; parameters: species or system Male Sprague Dawley rats; conditions: plasma, rat
Method: The animal study was conducted in accordance with the National Research Council’s Guide for the Care and Use of Laboratory Animals and approved by the Ethics Committee of Chengdu University of Traditional Chinese Medicine (Approval Code: 2021-76). All procedures were performed in compliance with relevant regulations and guidelines. Male Sprague Dawley rats weighing 180–220 g were fasted overnight (12 h) with free access to water, then randomly assigned to 4 groups (n = 6). […] Approximately 50 μL of blood samples were collected into EDTA-K2-treated Eppendorf tubes at time points ranging from 0.083, 0.25, 0.5, 1, 2, 4, and 6 to 10 h after dosing. The blood samples were centrifuged at 2000× g and 4 °C for 10 min, followed by collection and storage of the supernatant plasma at −20 °C until analysis. […] A protein precipitation method was employed to pretreat 10 μL plasma with 430 μL acetonitrile, 50 μL internal standard solution (gefitinib), and 10 μL mobile phase. After centrifugation at 10,000× g for 10 min at 4 °C, the supernatant was injected into the apparatus and then separated by a Thermo Hypersil C18 chromatographic column (3 μm, 2.1 mm × 50 mm) at 40 °C. […] Phoenix 8.1 WinNonlin Toolkit (Certara, Princeton, NJ, USA) was employed to conduct the non-compartment model of pharmacokinetic analysis.

[4] = IVIVC prediction based on DGIM in vitro absorption data; parameters: species or system Male Sprague Dawley rats; conditions: predicted through IVIVC from DGIM
Method: (§1) The in vitro–in vivo correlation (IVIVC) was performed using Phoenix 8.1 IVIVC Toolkit (Certara, Princeton, NJ, USA). […] Double Weibull Dissolution Model was selected for fitting both dissolution data from the absorptive phase of DGIM and USP II. The absorption data were obtained via deconvolution analysis of the drug plasma concentration–time curves. The reference formulation for deconvolution to estimate oral absorption was based on the in vivo data of the i.v. group. Additionally, both control group and PVPVA group’s in vitro data were used to establish a correlation between dissolved fraction and absorbed fraction, while the HPMC group’s data served as external validation. The maximum number of unit impulse response exponentials defaulted to three. With WinNonlin Generated Initial Parameter and Winnonlin Bounds, the best correlation model was selected according to the lowest AIC. Validation parameters included AUClast calculated with linear trapezoidal method along with linear interpolation averaging as mean values were adopted. The process of prediction followed the same parameters above. The prediction error (PE) was evaluated following the FDA’s guidance.

[5] = IVIVC prediction based on USP II in vitro absorption data; parameters: species or system Male Sprague Dawley rats; conditions: predicted through IVIVC from USP II
Method: as §1

[6] = phosphate buffer ref 19; cited from earlier work
[7] = aqueous phase of the duodenal cup

Structure (SMILES): CC(=O)N1CCN(c2ccc(OCC3COC(Cn4ccnc4)(c4ccc(Cl)cc4Cl)O3)cc2)CC1 (centres unmarked) [ketoconazole, Ketoconazole]
- pKa ([1]; FaSSIF (biorelevant fluid), read-out: pKa of the fitted pH-solubility function): 6.32
- solubility at 24 h ([1]; FaSSIF, read-out: CU (concentration of unionized form) of the fitted pH-solubility function): 7.88 µg/mL (≈ 14.8 µM)
- DSAUC (area under the degree of supersaturation over time curve) ([2]; Duodenal): 3.715
- DSAUC (area under the degree of supersaturation over time curve) ([2]; Jejunal): 5.452
- major precipitation time [2, 7]: 19 min
- maximum concentration of ketoconazole [2, 7]: 1049 µg/mL
- maximum concentration of ketoconazole ([2]; jejunal aqueous phase): 282 µg/mL
- bioavailability ([3]; male, Sprague Dawley, oral 10 mg/kg vs i.v. 2.5 mg/kg, read-out: absolute bioavailability): 70%
- AUC ([3]; male, Sprague Dawley, po, 10 mg/kg, read-out: AUC, Observation): 113 µg·h/mL
- Cmax ([3]; male, Sprague Dawley, po, 10 mg/kg, read-out: Cmax, Observation): 41300 ng/mL
- AUC, Observation ([3]; oral 10 mg/kg ketoconazole): 112,853 h·ng·mL^−1
- Cmax, Observation ([3]; oral 10 mg/kg ketoconazole): 41,300 ng·mL^−1
- AUC, Prediction [4]: 114,652 h·ng·mL^−1
- Cmax, Prediction [4]: 45,529 ng·mL^−1
- AUC, Prediction [5]: 108,727 h·ng·mL^−1
- Cmax, Prediction [5]: 45,702 ng·mL^−1
- pKa, reported value [6]: 6.5
